Reference: PubChem BioAssay (NCI)
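Cultured in 96-well plates, cells were exposed to test compound for 48 hours across five concentrations. Definition used: TGI = concentration required for complete inhibition of growth.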

Key:
Assay in all cases: growth of human tumour cells (NCI), 48 h
[1] = test system: NCI-H226 lung
[2] = test system: CAKI-1 renal
[3] = test system: SF-268 CNS
[4] = test system: HCC-2998 colon
[5] = test system: LOX IMVI melanoma
[6] = test system: MCF7 breast
[7] = test system: SK-MEL-28 melanoma
[8] = test system: MOLT-4 leukemia
[9] = test system: OVCAR-3 ovarian
[10] = test system: HS 578T breast
[11] = test system: SK-OV-3 ovarian
[12] = test system: SNB-19 CNS
[13] = test system: DU-145 prostate
[14] = test system: HCT-116 colon
[15] = test system: MDA-N
[16] = test system: A498 renal
[17] = test system: ACHN renal
[18] = test system: SF-539 CNS
[19] = test system: RXF 393 renal
[20] = test system: OVCAR-8 ovarian
[21] = test system: UACC-62 melanoma
[22] = test system: A549 NSCLC
[23] = test system: SK-MEL-2 melanoma
[24] = test system: T-47D breast
[25] = test system: CCRF-CEM leukemia
[26] = test system: OVCAR-5 ovarian
[27] = test system: MDA-MB-231 breast
[28] = test system: IGROV1 ovarian
[29] = test system: MDA-MB-435
[30] = test system: M14 melanoma
[31] = test system: OVCAR-4 ovarian
[32] = test system: HT29 colon
[33] = test system: SK-MEL-5 melanoma
[34] = test system: HL-60(TB) leukemia
[35] = test system: HCT-15 colon
[36] = test system: SR leukemia
[37] = test system: PC-3 prostate
[38] = test system: HOP-62 NSCLC
[39] = test system: SNB-75 CNS
[40] = test system: BT-549 breast
[41] = test system: RPMI-8226 leukemia
[42] = test system: SF-295 CNS
[43] = test system: NCI/ADR-RES ovarian
[44] = test system: UACC-257 melanoma
[45] = test system: HOP-92 NSCLC
[46] = test system: K-562 leukemia
[47] = test system: U251 CNS
[48] = test system: EKVX NSCLC
[49] = test system: SN12C renal
[50] = test system: MALME-3M melanoma
[51] = test system: COLO 205 colon
[52] = test system: TK-10 renal
[53] = test system: NCI-H460 lung
[54] = test system: KM12 colon
[55] = test system: NCI-H522 lung
[56] = test system: SW-620 colon
[57] = test system: 786-0 renal
[58] = test system: NCI-H23 lung
[59] = test system: UO-31 renal

C=CC(C)(C)N[C@@H](C(=O)N1CCC[C@H]1c1nc(-c2nc(C(=O)OCC=C(C)C)c(C)o2)c(C)o1)C(C)C
TGI [1]: 35.6 µM | TGI [2]: > 100 µM | TGI [3]: 46.9 µM | TGI [4]: 36 µM | TGI [5]: > 100 µM | TGI [6]: 91.4 µM | TGI [7]: 38.2 µM | TGI [8]: 36.9 µM | TGI [9]: 59.5 µM | TGI [10]: 40.2 µM | TGI [11]: 86.8 µM | TGI [12]: 55 µM | TGI [13]: 34 µM | TGI [14]: 38.6 µM | TGI [15]: 38.4 µM | TGI [16]: 39.4 µM | TGI [17]: 88.3 µM | TGI [18]: 38.3 µM | TGI [19]: 91.8 µM | TGI [20]: 65 µM | TGI [21]: 38.6 µM | TGI [22]: > 100 µM | TGI [23]: 73.5 µM | TGI [24]: 73.4 µM | TGI [25]: 41.8 µM | TGI [26]: > 100 µM | TGI [27]: 51.3 µM | TGI [28]: > 100 µM | TGI [29]: 39.8 µM | TGI [30]: 83.4 µM | TGI [31]: 71.4 µM | TGI [32]: 46.1 µM | TGI [33]: 52 µM | TGI [34]: 93.9 µM | TGI [35]: 51.5 µM | TGI [36]: 40.6 µM | TGI [37]: > 100 µM | TGI [38]: 51.7 µM | TGI [39]: > 100 µM | TGI [40]: 46.2 µM | TGI [41]: 61.8 µM | TGI [42]: 42.8 µM | TGI [43]: 59 µM | TGI [44]: 38.4 µM | TGI [45]: 35 µM | TGI [46]: > 100 µM | TGI [47]: 45.1 µM | TGI [48]: > 100 µM | TGI [49]: 39.2 µM | TGI [50]: 39 µM | TGI [51]: 52.1 µM | TGI [52]: 63.2 µM | TGI [53]: 51.1 µM | TGI [54]: 60.3 µM | TGI [55]: 35.6 µM | TGI [56]: 53.8 µM | TGI [57]: 44.5 µM | TGI [58]: 48.1 µM | TGI [59]: 38.3 µM
